From PubChem BioAssay AID2060499 (Molecular Pharmacology Branch, DTP, NCI, 2025)

System: 777334-354-R2-J4-PDC tumor spheroids with HUVEC/MSC, viability
Assay: Anticancer human tumor 777334-354-R2-J4-PDC patient-derived pancreatic adenocarcinoma cell line growth inhibition [GQUAD]
Conditions: for IC50: curve of first compound; for viability, T/C: stronger effect = lower value
How it was run: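 Multi-cell-type spheroids of tumor cells with HUVEC and mesenchymal stem cells, treated with drug combinations. Concentrations descend in half-log steps from near clinical Cmax, or from 10 microM where Cmax is unknown; viability read-out.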
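Also: spheroids exposed to compounds for 7 days before readout.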

## COc1cc(C2c3cc4c(cc3C(OC3OC5COC(C)OC5C(O)C3O)C3COC(=O)C23)OCO4)cc(OC)c1O (configuration not stated) + Cc1[nH]c2ccc(F)cc2c1-c1nc2c3cccnc3c3ncccc3c2[nH]1
Second compound 0.0316 µM
  IC50: 6.31 µM
Second compound 0.1 µM
  IC50: 7.25 µM
Second compound 0.316 µM
  IC50: 5.37 µM
Second compound 1 µM
  IC50: 3.27 µM
Second compound 3.16 µM
  IC50: < 0.0316 µM
Second compound 10 µM
  IC50: < 0.0316 µM
Second compound 0.0316 µM, first compound 0.0316 µM
  viability, T/C: 95.9%
Second compound 0.0316 µM, first compound 0.1 µM
  viability, T/C: 91%
Second compound 0.0316 µM, first compound 0.316 µM
  viability, T/C: 90.1%
Second compound 0.0316 µM, first compound 1 µM
  viability, T/C: 71.4%
Second compound 0.0316 µM, first compound 3.16 µM
  viability, T/C: 64.4%
Second compound 0.0316 µM, first compound 10 µM
  viability, T/C: 41.5%
Second compound 0.1 µM, first compound 0.0316 µM
  viability, T/C: 104%
Second compound 0.1 µM, first compound 0.1 µM
  viability, T/C: 91.7%
Second compound 0.1 µM, first compound 0.316 µM
  viability, T/C: 90.2%
Second compound 0.1 µM, first compound 1 µM
  viability, T/C: 72.1%
Second compound 0.1 µM, first compound 3.16 µM
  viability, T/C: 63.4%
Second compound 0.1 µM, first compound 10 µM
  viability, T/C: 44.7%
Second compound 0.316 µM, first compound 0.0316 µM
  viability, T/C: 72.8%
Second compound 0.316 µM, first compound 0.1 µM
  viability, T/C: 88.6%
Second compound 0.316 µM, first compound 0.316 µM
  viability, T/C: 84.1%
Second compound 0.316 µM, first compound 1 µM
  viability, T/C: 80%
Second compound 0.316 µM, first compound 3.16 µM
  viability, T/C: 58.8%
Second compound 0.316 µM, first compound 10 µM
  viability, T/C: 39.7%
Second compound 1 µM, first compound 0.0316 µM
  viability, T/C: 89.5%
Second compound 1 µM, first compound 0.1 µM
  viability, T/C: 78.7%
Second compound 1 µM, first compound 0.316 µM
  viability, T/C: 73.5%
Second compound 1 µM, first compound 1 µM
  viability, T/C: 63.6%
Second compound 1 µM, first compound 3.16 µM
  viability, T/C: 54.1%
Second compound 1 µM, first compound 10 µM
  viability, T/C: 32.3%
Second compound 3.16 µM, first compound 0.0316 µM
  viability, T/C: 36.6%
Second compound 3.16 µM, first compound 0.1 µM
  viability, T/C: 47.1%
Second compound 3.16 µM, first compound 0.316 µM
  viability, T/C: 33.7%
Second compound 3.16 µM, first compound 1 µM
  viability, T/C: 22.4%
Second compound 3.16 µM, first compound 3.16 µM
  viability, T/C: 22.2%
Second compound 3.16 µM, first compound 10 µM
  viability, T/C: 15.9%
Second compound 10 µM, first compound 0.0316 µM
  viability, T/C: 32.6%
Second compound 10 µM, first compound 0.1 µM
  viability, T/C: 22.6%
Second compound 10 µM, first compound 0.316 µM
  viability, T/C: 27.6%
Second compound 10 µM, first compound 1 µM
  viability, T/C: 15.1%
Second compound 10 µM, first compound 3.16 µM
  viability, T/C: 16%
Second compound 10 µM, first compound 10 µM
  viability, T/C: 12%
